According to patent US12195482B1 (Arcus Biosciences, Inc., priority 2022, dated 2025):

Assays:
recombinant human MER = molecular target: T1, recombinant human MER (Homo sapiens, UniProt Q12866); assay: Biochemical potency, HTRF KinEASE-TK kinase assay; details: 1 nM MER, 700 μM ATP
T1 construct: purchased Invitrogen
T1 sequence (Q12866 21-999): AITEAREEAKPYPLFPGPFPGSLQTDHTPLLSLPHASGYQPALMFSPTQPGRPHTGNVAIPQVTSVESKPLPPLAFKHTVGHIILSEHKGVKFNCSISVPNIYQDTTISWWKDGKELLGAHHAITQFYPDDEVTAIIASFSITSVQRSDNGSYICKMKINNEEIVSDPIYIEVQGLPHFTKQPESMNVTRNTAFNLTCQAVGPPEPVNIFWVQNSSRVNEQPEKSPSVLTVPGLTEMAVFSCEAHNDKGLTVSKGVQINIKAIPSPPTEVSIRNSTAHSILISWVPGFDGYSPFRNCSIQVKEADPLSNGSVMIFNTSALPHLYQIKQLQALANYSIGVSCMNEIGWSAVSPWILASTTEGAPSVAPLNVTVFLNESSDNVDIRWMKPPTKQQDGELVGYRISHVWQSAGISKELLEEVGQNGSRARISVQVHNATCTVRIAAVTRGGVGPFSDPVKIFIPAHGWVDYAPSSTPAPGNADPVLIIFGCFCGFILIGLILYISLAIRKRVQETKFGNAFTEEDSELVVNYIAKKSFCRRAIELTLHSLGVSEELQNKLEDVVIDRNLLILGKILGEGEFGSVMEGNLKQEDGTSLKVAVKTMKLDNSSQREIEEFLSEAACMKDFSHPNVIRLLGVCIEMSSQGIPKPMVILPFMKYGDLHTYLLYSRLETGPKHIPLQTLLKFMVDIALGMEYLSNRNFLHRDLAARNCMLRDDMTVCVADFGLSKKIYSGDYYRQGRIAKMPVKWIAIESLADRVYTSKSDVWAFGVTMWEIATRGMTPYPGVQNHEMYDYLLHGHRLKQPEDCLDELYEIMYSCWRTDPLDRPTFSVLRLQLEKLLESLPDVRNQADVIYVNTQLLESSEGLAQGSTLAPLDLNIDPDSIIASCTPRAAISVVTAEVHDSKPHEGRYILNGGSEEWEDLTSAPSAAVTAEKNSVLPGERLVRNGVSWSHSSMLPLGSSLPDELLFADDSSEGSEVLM
Method: (§1) Measurement of Biochemical Compound Potency of Axl Inhibitors
(§2) Purified recombinant human AXL, TYRO3 and MER proteins were purchased from Invitrogen™. 10 nM AXL, 2 nM TYRO3 or MER were incubated with varying concentrations of compounds in 50 mM HEPES, pH 7.4, 10 mM MgCl2, 0.01% BSA, 1 mM DTT and 2% DMSO in a total volume of 20 μl in a 384-well microplate (Corning™ #3640) at RT for 1 h. The AXL, TYRO3 and MER enzymatic reaction was initiated by transferring 10 μl of enzyme and compound mixture into 10 μl of 1.6 μM TK Substrate-biotin (HTRF® KinEASE-TK kit, Cisbio) and 1400 μM ATP pre-incubated in 50 mM HEPES, pH 7.4, 10 mM MgCl2, 0.01% BSA, 1 mM DTT in a 384-well microplate (Corning™ #3640) at RT, giving the final reaction conditions: 5 nM AXL, 1 nM TYRO3 or MER, 800 nM TK Substrate-biotin and 700 μM ATP in 50 mM HEPES, pH 7.4, 10 mM MgCl2, 0.01% BSA, 1 mM DTT and 1% DMSO with varying concentrations of compounds. Following 2 h incubation at RT, the AXL, TYRO3 and MER enzymatic reaction was stopped by transfer of 10 μl of reaction into 10 μl of detection mix (400 nM Streptavidin-XL665, 200-fold dilution TK Antibody-Cryptate and detection buffer, HTRF® KinEASE-TK kit, Cisbio) in a white 384-well microplate (Perkin Elmer, OptiPlate 384). After 1 h incubation at RT, the plate was put into a plate reader (Evision) to read at 665/620 nm (acceptor/donor) for HTRF. The value of the DMSO blank (MIN inhibition=100% activity) was used as a negative control. The positive control was established by adding 5 μl of enzyme and DMSO mixture into 10 μl of detection mix followed by addition of 5 μl of TK Substrate-biotin and ATP mixture (MAX inhibition=0% activity). To calculate the percent activity, Equation 1 was used. Ratio665/620 is the value at a given compound concentration: […]

recombinant human TYRO3 = molecular target: T2, recombinant human TYRO3 (Homo sapiens, UniProt Q06418); assay: Biochemical potency, HTRF KinEASE-TK kinase assay; details: 1 nM TYRO3, 700 μM ATP
T2 construct: purchased Invitrogen
T2 sequence (Q06418 41-890): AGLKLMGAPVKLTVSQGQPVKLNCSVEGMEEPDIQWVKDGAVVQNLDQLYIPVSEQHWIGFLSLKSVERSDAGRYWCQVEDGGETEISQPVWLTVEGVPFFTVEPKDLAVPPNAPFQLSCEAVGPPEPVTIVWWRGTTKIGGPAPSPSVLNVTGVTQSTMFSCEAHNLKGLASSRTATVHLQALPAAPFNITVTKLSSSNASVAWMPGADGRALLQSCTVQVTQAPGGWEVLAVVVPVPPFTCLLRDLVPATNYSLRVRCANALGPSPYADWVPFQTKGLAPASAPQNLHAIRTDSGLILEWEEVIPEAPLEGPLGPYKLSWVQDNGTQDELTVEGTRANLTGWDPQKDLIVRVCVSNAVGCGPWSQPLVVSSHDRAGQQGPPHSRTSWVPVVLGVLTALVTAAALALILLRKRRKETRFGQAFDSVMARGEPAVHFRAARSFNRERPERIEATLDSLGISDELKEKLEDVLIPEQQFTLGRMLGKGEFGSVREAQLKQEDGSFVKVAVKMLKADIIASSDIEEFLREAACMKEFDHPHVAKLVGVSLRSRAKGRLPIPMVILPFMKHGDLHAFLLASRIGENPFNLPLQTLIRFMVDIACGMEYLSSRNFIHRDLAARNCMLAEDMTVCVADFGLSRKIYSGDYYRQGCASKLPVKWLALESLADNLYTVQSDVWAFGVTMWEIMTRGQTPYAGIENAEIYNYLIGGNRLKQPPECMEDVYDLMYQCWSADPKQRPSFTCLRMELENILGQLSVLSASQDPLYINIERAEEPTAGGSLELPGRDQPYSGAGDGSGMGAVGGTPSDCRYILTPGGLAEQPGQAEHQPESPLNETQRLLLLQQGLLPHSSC
Method: as §1, §2

IC50 (recombinant human MER)	IC50 (recombinant human TYRO3)	Compound
> 1000 nM	> 1000 nM	Cc1ccccc1-c1ccc(-c2c[nH]c3ncc(-c4ccc5c(c4)CC[C@@H](N4C6COCC4C6)CC5)cc23)nc1 [Example 97, 6-[(7S)-2-{3-[5-(2-Methylphenyl)pyridin-2-yl]-1H-pyrrolo[2,3-b]pyridin-5-yl}-6,7,8,9-tetrahydro-5H-benzo[7]annulen-7-yl]-3-oxa-6-azabicyclo[3.1.1]heptane]
100 to 1000 nM	100 to 1000 nM	CCOc1cccnc1-c1ccc(-c2n[nH]c3ncc(-c4ccc5c(c4)CC[C@@H](N4C6COCC4C6)CC5)cc23)cc1 [Example 181, 6-[(7S)-2-{3-[4-(3-Ethoxypyridin-2-yl)phenyl]-1H-pyrazolo[3,4-b]pyridin-5-yl}-6,7,8,9-tetrahydro-5H-benzo[7]annulen-7-yl]-3-oxa-6-azabicyclo[3.1.1]heptane]
100 to 1000 nM	100 to 1000 nM	FC(F)Oc1cccnc1-c1ccc(-c2n[nH]c3ncc(-c4ccc5c(c4)CC[C@@H](N4C6COCC4C6)CC5)cc23)cc1 [Example 99, 6-[(7S)-2-(3-{4-[3-(Difluoromethoxy)pyridin-2-yl]phenyl}-1H-pyrazolo[3,4-b]pyridin-5-yl)-6,7,8,9-tetrahydro-5H-benzo[7]annulen-7-yl]-3-oxa-6-azabicyclo[3.1.1]heptane]
100 to 1000 nM	< 100 nM	CN(C)C(=O)c1cccnc1-c1ccc(-c2n[nH]c3ncc(-c4ccc5c(c4)CC[C@@H](N4C6COCC4C6)CC5)cc23)cc1 [Example 167, N,N-Dimethyl-2-(4-{5-[(7S)-7-{3-oxa-6-azabicyclo[3.1.1]heptan-6-yl}-6,7,8,9-tetrahydro-5H-benzo[7]annulen-2-yl]-1H-pyrazolo[3,4-b]pyridin-3-yl}phenyl)pyridine-3-carboxamide]
100 to 1000 nM	< 100 nM	COc1cccnc1-c1ccc(-c2c[nH]c3ncc(-c4ccc5c(c4)CC[C@@H](N4C6COCC4C6)CC5)cc23)cc1 [Example 164, 6-[(7S)-2-{3-[4-(3-Methoxypyridin-2-yl)phenyl]-1H-pyrrolo[2,3-b]pyridin-5-yl}-6,7,8,9-tetrahydro-5H-benzo[7]annulen-7-yl]-3-oxa-6-azabicyclo[3.1.1]heptane]
100 to 1000 nM	< 100 nM	c1cnc(-c2ccc(-c3c[nH]c4ncc(-c5ccc6c(c5)CC[C@@H](N5C7COCC5C7)CC6)cc34)cc2)c(N2CCOCC2)c1 [Example 5, 6-[(7S)-2-(3-{4-[3-(Morpholin-4-yl)pyridin-2-yl]phenyl}-1H-pyrrolo[2,3-b]pyridin-5-yl)-6,7,8,9-tetrahydro-5H-benzo[7]annulen-7-yl]-3-oxa-6-azabicyclo[3.1.1]heptane]
100 to 1000 nM	100 to 1000 nM	CN(C)S(=O)(=O)c1cccnc1-c1ccc(-c2c[nH]c3ncc(-c4ccc5c(c4)CC[C@@H](N4C6COCC4C6)CC5)cc23)cc1 [Example 6, N,N-Dimethyl-2-(4-{5-[(7S)-7-{3-oxa-6-azabicyclo[3.1.1]heptan-6-yl}-6,7,8,9-tetrahydro-5H-benzo[7]annulen-2-yl]-1H-pyrrolo[2,3-b]pyridin-3-yl}phenyl)pyridine-3-sulfonamide]

The remaining lines, values behind:

Compound	IC50 (recombinant human MER)	IC50 (recombinant human TYRO3)
CN(C)C(=O)c1ccccc1-c1ccc(-c2c[nH]c3ncc(-c4ccc5c(c4)CC[C@@H](N4C6COCC4C6)CC5)cc23)cn1 [Example 170, N,N-Dimethyl-2-(5-{5-[(7S)-7-{3-oxa-6-azabicyclo[3.1.1]heptan-6-yl}-6,7,8,9-tetrahydro-5H-benzo[7]annulen-2-yl]-1H-pyrrolo[2,3-b]pyridin-3-yl}pyridin-2-yl)benzamide]	100 to 1000 nM	100 to 1000 nM
Cc1cc(F)cnc1-c1ccc(-c2n[nH]c3ncc(-c4ccc5c(c4)CC[C@@H](N4C6COCC4C6)CC5)cc23)cc1 [Example 28, 6-[(7S)-3-[3-[4-(5-Fluoro-3-methylpyridin-2-yl)phenyl]-1H-pyrazolo[3,4-b]pyridin-5-yl]-6,7,8,9-tetrahydro-5H-benzo[7]annulen-7-yl]-3-oxa-6-azabicyclo[3.1.1]heptane]	100 to 1000 nM	< 100 nM
c1ccc(-n2cc(-c3n[nH]c4ncc(-c5ccc6c(c5)CC[C@@H](N5C7COCC5C7)CC6)cc34)cn2)nc1 [Example 168, 6-[(7S)-2-{3-[1-(Pyridin-2-yl)-1H-pyrazol-4-yl]-1H-pyrazolo[3,4-b]pyridin-5-yl}-6,7,8,9-tetrahydro-5H-benzo[7]annulen-7-yl]-3-oxa-6-azabicyclo[3.1.1]heptane]	100 to 1000 nM	100 to 1000 nM
Cc1ccc(C)c(-c2ccc(-c3n[nH]c4ncc(-c5ccc6c(c5)CC[C@@H](N5C7COCC5C7)CC6)cc34)cc2)n1 [Example 120, 6-[(7S)-2-{3-[4-(3,6-Dimethylpyridin-2-yl)phenyl]-1H-pyrazolo[3,4-b]pyridin-5-yl}-6,7,8,9-tetrahydro-5H-benzo[7]annulen-7-yl]-3-oxa-6-azabicyclo[3.1.1]heptane]	100 to 1000 nM	< 100 nM
Cc1nccnc1-c1ccc(-c2n[nH]c3ncc(-c4ccc5c(c4)CC[C@@H](N4C6COCC4C6)CC5)cc23)cc1 [Example 175, 6-[(7S)-2-{3-[4-(3-Methylpyrazin-2-yl)phenyl]-1H-pyrazolo[3,4-b]pyridin-5-yl}-6,7,8,9-tetrahydro-5H-benzo[7]annulen-7-yl]-3-oxa-6-azabicyclo[3.1.1]heptane]	100 to 1000 nM	100 to 1000 nM
Cc1ccnc(-c2ccc(-c3n[nH]c4ncc(-c5ccc6c(c5)CC[C@@H](N5C7COCC5C7)CC6)cc34)cc2)c1C [Example 118, 6-[(7S)-2-{3-[4-(3,4-Dimethylpyridin-2-yl)phenyl]-1H-pyrazolo[3,4-b]pyridin-5-yl}-6,7,8,9-tetrahydro-5H-benzo[7]annulen-7-yl]-3-oxa-6-azabicyclo[3.1.1]heptane]	100 to 1000 nM	< 100 nM
